For one experiment, the system named is Balb/c mice. In words: Prevention of concanavalin A liver injury. The format is in vivo, mouse. Conditions: 10 mg/mL suspension at 10 mL/kg, 30 min prior to Con A, plasma 24 hr after Con A; for inhibition in vivo at 10000 µg/mL, 100 mg/kg: Mus musculus, po, 24 h. The method in brief: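 Female Balb/c mice, 6-8 weeks, 5/group; compound suspended at 10 mg/mL in 0.5% CMC, given orally at 10 mL/kg 30 min before i.v. Con A (2.0 mg/mL, 10 mL/kg). Plasma AST and ALT measured 24 hr after Con A; inhibitory rate calculated against vehicle and untreated groups.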

For experiment [1], the system named is Mouse preadipocyte strain 3T3-L1. The experiment is described as follows: Inhibition of differentiation as an indication of acetic acid uptake. The class given is cell-based. Conditions: control (0.01% dimethylsulfoxide) = 100%; for activity at 0.1 µM: Mus musculus, 3T3-L1, 0.1 μM test substance, read-out: Rate of Uptake (%) of [2-14C] acetic acid. The method in brief:
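Confluent 3T3-L1 cells induced to differentiate for 4 days (insulin, IBMX, dexamethasone, 5% FBS) with test compound at 0.1 μM final or 0.01% DMSO, then 2 days in insulin maintenance medium, at 37 °C, 10% CO2. [2-14C]acetic acid uptake over 1 hr counted by scintillation; expressed as % of DMSO control.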

In experiment [2] the test system is human colon cancer cells COL-2-JCK. In words: Inhibition of colony forming activity in human colon cancer cells. The format is cell-based. Conditions: Homo sapiens, 240 h; 1 μM test compound; 10 days; sum of colony areas vs control; read-out: Inhibition Rate (%) against the colony forming activity. The method in brief:
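COL-2-JCK cells seeded at 300 cells/well and grown 10 days at 37 °C, 5% CO2 with compound at 1 μM final (0.1% DMSO). Colonies stained with crystal violet in formalin; inhibition % = (1 − treated/control colony area)×100.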

[3] abbreviates: read-out: Preventing rate against liver injury, ALT (%).
Setting [4] is: read-out: Preventing rate against liver injury, AST (%).

From patent US20030134859A1 (SANKYO COMPANY, LIMITED, priority 2000, published 2003) come the findings set out here.

Structures can show the parent of a compound that is named as a salt. Where two headings read alike, the source gives them in different places.

With `O=C(Nc1ccc(N2CCCCC2)cc1)c1cc([N+](=O)[O-])ccc1Cl` [Example 114, N-[4-(Piperidin-1-yl)phenyl]-(2-chloro-5-nitrophenyl)carboxamide], the inhibition in vivo at 10000 µg/mL, 100 mg/kg was 32.8% in the experiment with Balb/c mice (setting [3]) and 50.5% in the experiment on Balb/c mice (setting [4]). Moreover, in experiment [1], the activity at 0.1 µM worked out at 79%. The inhibition (commonly the percentage by which the read-out fell short of the control) at 1 µM in experiment [2] was found to be 22%.
For `O=C(Nc1ccc(OC(F)(F)F)cc1)c1cc([N+](=O)[O-])ccc1Cl` [Example 18, N-(4-Trifluoromethyloxyphenyl)-(2-chloro-5-nitrophenyl)carboxamide], the results for the inhibition in vivo at 10000 µg/mL, 100 mg/kg in the experiment with Balb/c mice (setting [3]) and in the experiment on Balb/c mice (setting [4]) were 39.8% and 24.1%, respectively. Also, the activity at 0.1 µM in experiment [1] turned out to be 53.8%.
In the case of `CCCc1ccc(NC(=O)c2cc([N+](=O)[O-])ccc2Cl)cc1` [Example 15, N-(4-Propylphenyl)-(2-chloro-5-nitrophenyl)carboxamide], the inhibition in vivo at 10000 µg/mL, 100 mg/kg in the experiment with Balb/c mice (setting [3]) is 39%; with Balb/c mice (setting [4]), 54%. Besides, the activity at 0.1 µM in experiment [1] was 78.4%. Moreover, the inhibition at 1 µM in experiment [2] was determined as 14%.
As to `O=C(Nc1nccc2ccccc12)c1cc([N+](=O)[O-])ccc1Cl` [Example 59, N-(Isoquinolin-1-yl)-(2-chloro-5-nitrophenyl)carboxamide], the inhibition in vivo at 10000 µg/mL, 100 mg/kg was found to be 18.7% in the experiment on Balb/c mice (setting [3]) and 20.5% with Balb/c mice (setting [4]). Besides, the activity at 0.1 µM in experiment [1] worked out at 36.3%. For the same compound, the inhibition at 1 µM in experiment [2] came to 94%.
In the case of `O=C(Nc1ccc(C(=O)N2CCCCC2)cc1)c1cc([N+](=O)[O-])ccc1Cl` [Example 159, N-[4-(Piperidylcarbonyl)phenyl]-(2-chloro-5-nitrophenyl)carboxamide], the results for the inhibition in vivo at 10000 µg/mL, 100 mg/kg in the experiment on Balb/c mice (setting [3]) and in the experiment with Balb/c mice (setting [4]) were 78.7% and 91.2%, respectively.
As to `O=C(Nc1ccncc1)c1cc([N+](=O)[O-])ccc1Cl` [Example 49, N-(4-Pyridyl)-(2-chloro-5-nitrophenyl)carboxamide], the inhibition in vivo at 10000 µg/mL, 100 mg/kg with Balb/c mice (setting [3]) came to 59%; with Balb/c mice (setting [4]) it was 61%. The “Rate of Uptake (%) of [2-14C] acetic acid” value in experiment [1] (0.1 μM test substance) amounted to 69.6%.
`CC(=O)Nc1ccc(-c2ccc(NC(=O)c3cc([N+](=O)[O-])ccc3Cl)cc2)cc1` [Example 118, N-[4-(4-Acetylaminophenyl)phenyl]-(2-chloro-5-nitrophenyl)carboxamide]: the inhibition in vivo at 10000 µg/mL, 100 mg/kg came to 55.8% in the experiment with Balb/c mice (setting [3]) and 45% with Balb/c mice (setting [4]). Besides, the activity at 0.1 µM in experiment [1] is 79.6%. Further, in experiment [2], the inhibition at 1 µM is 41%.
Take `Nc1ccc(-c2ccc(NC(=O)c3cc([N+](=O)[O-])ccc3Cl)cc2)cc1` [Example 88, N-[4-(4-Aminophenyl)phenyl]-(2-chloro-5-nitrophenyl)carboxamide mono-hydrochloride]: the inhibition in vivo at 10000 µg/mL, 100 mg/kg came out at 42.3% in the experiment with Balb/c mice (setting [3]) and 57% in the experiment with Balb/c mice (setting [4]). In addition, the activity at 0.1 µM in experiment [1] stood at 56.4%. The inhibition at 1 µM in experiment [2] was found to be 8%.
`CC(C)(C)c1cc(NS(=O)(=O)c2cccc(NC(=O)c3cc([N+](=O)[O-])ccc3Cl)c2)cc(C(C)(C)C)c1O` [Example 161, N-[3-[(3,5-di-tert-Butyl-4-hydroxyphenyl)aminosulfonyl]phenyl]-(2-chloro-5-nitrophenyl)carboxamide]: the inhibition in vivo at 10000 µg/mL, 100 mg/kg was determined as 82.8% in the experiment with Balb/c mice (setting [3]) and 69.3% in the experiment on Balb/c mice (setting [4]).
Regarding `CC(=O)c1cccc(NC(=O)c2cc([N+](=O)[O-])ccc2Cl)c1` [Example 156, N-(3-Acetylphenyl)-(2-chloro-5-nitrophenyl)carboxamide], the inhibition in vivo at 10000 µg/mL, 100 mg/kg in the experiment with Balb/c mice (setting [3]) came out at 85.5%; with Balb/c mice (setting [4]), 82.6%.
As to “N-[4-[4-(Pyrrolidin-1-ylamino)phenyl]phenyl]-(2-chloro-5-nitrophenyl)carboxamide [Example 171]”, in the experiment with Balb/c mice (oral), the “Preventing rate against liver injury, ALT (%)” value came out at 90.0% and the “Preventing rate against liver injury, AST (%)” value is 102.8%.
